From the CheMixHub viscosity set
± gives the uncertainty stated by the source.

Assay: xn = mol fraction of the nth substance listed

c1ccccc1 + Cc1ccccc1
Details	viscosity [mPa·s]
293.15 K, 100 kPa, x2 = 0.25	0.631 ± 0.019
293.15 K, 101 kPa, x1 = 0.28	0.584 ± 0.016
293.15 K, 101 kPa, x1 = 0.54	0.597 ± 0.016
293.15 K, 101 kPa, x1 = 0.78	0.607 ± 0.016
293.15 K, 101.33 kPa, x1 = 0.1688	0.575 ± 0.0052
293.15 K, 101.33 kPa, x1 = 0.4383	0.592 ± 0.0053
293.15 K, 101.33 kPa, x1 = 0.5149	0.599 ± 0.0054
293.15 K, 101.33 kPa, x1 = 0.6583	0.606 ± 0.0055
293.15 K, 101.33 kPa, x1 = 0.7819	0.617 ± 0.0055
294.15 K, 100 kPa, x2 = 0.75	0.621 ± 0.019
294.65 K, 101.33 kPa, x2 = 0.83	0.6216 ± 0.0072
294.75 K, 101.33 kPa, x2 = 0.202	0.6571 ± 0.0077
294.95 K, 101.33 kPa, x2 = 0.62	0.6245 ± 0.0073
295.55 K, 101.33 kPa, x2 = 0.508	0.6234 ± 0.0072
295.65 K, 101.33 kPa, x2 = 0.107	0.6473 ± 0.0075
295.85 K, 101.33 kPa, x2 = 0.272	0.6379 ± 0.0073
296.05 K, 101.33 kPa, x2 = 0.386	0.6282 ± 0.0073
297.35 K, 101.33 kPa, x2 = 0.719	0.6066 ± 0.0072
298.15 K, 101 kPa, x1 = 0.1	0.5546 ± 0.0071
298.15 K, 101 kPa, x1 = 0.1153	0.556 ± 0.0048
298.15 K, 101 kPa, x1 = 0.1272	0.555 ± 0.007
298.15 K, 101 kPa, x1 = 0.2	0.5566 ± 0.0071
298.15 K, 101 kPa, x1 = 0.2022	0.5584 ± 0.0049
298.15 K, 101 kPa, x1 = 0.28	0.556 ± 0.015
298.15 K, 101 kPa, x1 = 0.2965	0.5613 ± 0.0049
298.15 K, 101 kPa, x1 = 0.3	0.5595 ± 0.0072
298.15 K, 101 kPa, x1 = 0.3423	0.558 ± 0.007
298.15 K, 101 kPa, x1 = 0.4	0.5632 ± 0.0072
298.15 K, 101 kPa, x1 = 0.4076	0.5651 ± 0.0049
298.15 K, 101 kPa, x1 = 0.5	0.5678 ± 0.0073
298.15 K, 101 kPa, x1 = 0.54	0.566 ± 0.015
298.15 K, 101 kPa, x1 = 0.5405	0.5703 ± 0.005
298.15 K, 101 kPa, x1 = 0.6	0.5732 ± 0.0073
298.15 K, 101 kPa, x1 = 0.7	0.5794 ± 0.0074
298.15 K, 101 kPa, x1 = 0.7024	0.579 ± 0.008
298.15 K, 101 kPa, x1 = 0.7237	0.5802 ± 0.005
298.15 K, 101 kPa, x1 = 0.78	0.574 ± 0.015
298.15 K, 101 kPa, x1 = 0.8	0.5864 ± 0.0075
298.15 K, 101 kPa, x1 = 0.8593	0.5888 ± 0.0051
298.15 K, 101 kPa, x1 = 0.9	0.594 ± 0.0076
298.15 K, 101 kPa, x1 = 0.9275	0.594 ± 0.008
298.15 K, 101 kPa, x1 = 0.9637	0.5968 ± 0.0052
298.15 K, 101.33 kPa, x1 = 0.0655	0.5543 ± 0.0056
298.15 K, 101.33 kPa, x1 = 0.0991	0.5554 ± 0.0056
298.15 K, 101.33 kPa, x1 = 0.2566	0.5591 ± 0.0056
298.15 K, 101.33 kPa, x1 = 0.3969	0.5652 ± 0.0057
298.15 K, 101.33 kPa, x1 = 0.5481	0.572 ± 0.0058
298.15 K, 101.33 kPa, x1 = 0.6618	0.5783 ± 0.0058
298.15 K, 101.33 kPa, x1 = 0.8029	0.5874 ± 0.0059
298.15 K, 101.33 kPa, x1 = 0.9087	0.5951 ± 0.0059
303.15 K, 101 kPa, x1 = 0.28	0.525 ± 0.014
303.15 K, 101 kPa, x1 = 0.54	0.531 ± 0.014
303.15 K, 101 kPa, x1 = 0.78	0.539 ± 0.014
303.15 K, 101.3 kPa, x1 = 0.0529	0.5206 ± 0.0046
303.15 K, 101.3 kPa, x1 = 0.1185	0.522 ± 0.0047
303.15 K, 101.3 kPa, x1 = 0.2615	0.5257 ± 0.0047
303.15 K, 101.3 kPa, x1 = 0.3482	0.5277 ± 0.0047
303.15 K, 101.3 kPa, x1 = 0.4486	0.5312 ± 0.0047
303.15 K, 101.3 kPa, x1 = 0.5963	0.5372 ± 0.0048
303.15 K, 101.3 kPa, x1 = 0.7138	0.5426 ± 0.0048
303.15 K, 101.3 kPa, x1 = 0.8413	0.5482 ± 0.0048
303.15 K, 101.3 kPa, x1 = 0.9558	0.5538 ± 0.0049
303.15 K, 101.33 kPa, x1 = 0.1688	0.509 ± 0.0047
